Data on four compounds can be found in patent US20070224128A1, “Drug adherence monitoring system” (priority 2006, published 2007).

Structures are written as SMILES. Values after ≈ are worked out from the molar mass of the structure shown. Structures can show the parent of a compound that is named as a salt. Where two headings read alike, the source gives them in different places.

The conditions of data set [1]: water at 25° C.; cited from earlier work.
For data set [2] the following is noted: cited from earlier work.
Data set [3] concerns rat. The settings on record: 4H; cited from earlier work.
The test system of data set [4] is rat. The settings on record: cited from earlier work.
The target of data set [5] is human recombinant CYP2D6 (Homo sapiens, UniProt P10635). The protocol:
CYP 2D6 inhibition assays were performed by Novascreen (Hanover, Md.). In brief, after 100 μL solution containing the compounds (dextromethorphan or trifluoroethyldextrorphan, concentration ranging from 10^−10 M to 10^−5M) and mixed 50 μL cofactor solution were preincubated in 100 mM potassium phosphate buffer (pH=7.4) for 10 min at 37° C., 50 μL of freshly mixed solution of human recombinant CYP2D6 (1.5 pmole) and AMMC (1.5 μM) was added to each well. The final cofactor concentrations were 1.3 mM NADP^+, 3.3 mM glucose-6-phosphate, 0.4 U/ml glucose-6-phosphate dehydrogenase. Samples were incubated for 45 minutes and the reaction was stopped with 75 μL Tris/acetonitrile stop solution. Quinidine was used as the reference compound. The AMMC metabolite, AMHC, was measured using a fluorescent plate scanner at an excitation wavelength of 390 nm and emission wavelength of 460 nm.

Data set [6] relates to human liver microsomes. Nature of the data set: Human liver microsomes assay: trifluoroacetaldehyde captured from headspace, GC/MS. The settings on record: 2 mg/mL human liver microsome, 1 mM trifluoroethyldextrorphan, 1.5 hours, determined as DNPH derivative. In general terms: Liver microsomes are a subcellular fraction often used to study metabolism.
Protocol: Microsomal incubations were conducted in 1.5 mL polypropylene vials containing 2 mg/mL human liver microsome, 5.2 mM NADP^+, 13.2 mM glucose-6-phosphate, 1.6 U/ml glucose-6-phosphate dehydrogenase, 6.6 mM magnesium chloride and 1 mM trifluoroethyldextrorphan in 100 mM potassium phosphate buffer (pH 7.5). The total volume was 1.5 mL.
LpDNPH S10 cartridges were employed to collect trifluoroacetaldehyde produced from incubation mixture for 1.5 hours through suction generated by a 5 mL syringe. The incubations were performed in triplicate. […]
A Thermo Finnigan Polaris Q Mass Spectrometer (MS) system (consists of a Polaris Q MS, a TRACE GC, and the Xcalibur Data System) was used. […] Negative chemical ionization (NCI) mode was used for identification and quantitation of trifluoroacetaldehyde 2,4-dinitrophenylhydrazone. […]
[^15N4]trifluoroacetaldehyde 2,4-dinitrophenylhydrazone was used as an internal standard for the determination of trifluoroacetaldehyde as its DNPH derivative. Quantitation was performed by selected ion monitoring (SIM) of most intensive fragment ions trifluoroacetaldehyde 2,4-dinitrophenylhydrazone (m/z 182) against the internal standard [^15N4]trifluoroacetaldehyde 2,4-dinitrophenylhydrazone (m/z 185). […]
The fragment ions m/z 182 and 185 were monitored for quantitation. […]

Chain of human recombinant CYP2D6 (P10635 whole entry): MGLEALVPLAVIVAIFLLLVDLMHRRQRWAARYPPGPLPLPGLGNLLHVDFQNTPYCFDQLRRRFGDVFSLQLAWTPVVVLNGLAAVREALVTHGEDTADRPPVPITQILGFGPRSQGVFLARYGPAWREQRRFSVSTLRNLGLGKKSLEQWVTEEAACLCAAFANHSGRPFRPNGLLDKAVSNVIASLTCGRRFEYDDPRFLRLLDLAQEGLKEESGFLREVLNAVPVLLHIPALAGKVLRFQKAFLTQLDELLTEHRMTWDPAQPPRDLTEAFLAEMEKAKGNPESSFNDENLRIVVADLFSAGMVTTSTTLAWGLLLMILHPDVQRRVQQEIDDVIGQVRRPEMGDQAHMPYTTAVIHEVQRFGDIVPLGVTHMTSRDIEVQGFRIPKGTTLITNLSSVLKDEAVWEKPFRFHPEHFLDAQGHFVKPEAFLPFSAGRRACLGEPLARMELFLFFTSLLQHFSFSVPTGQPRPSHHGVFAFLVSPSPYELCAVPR

As for `OC(C(F)(F)F)(C(F)(F)F)C(F)(F)F` [R′3], in data set [1], the Solubility (as a rule, how much of the substance goes into solution per volume) is 39,200 mg/L. In addition, the VP in data set [2] (at 20° C.) is recorded as 268 torr.
`OC(C(F)(F)F)C(F)(F)F` [R′4]: the “LC50 Inhalation rat” value in data set [3] is 1974 ppm/4H. Moreover, the “LD50 Oral rat” value in data set [4] was 1040 to 1500 mg/kg. Further, the Solubility in data set [1] is given as 7770 mg/L (≈ 46.2 mM). Besides, the values for the VP in data set [2] (at 20° C.) and in data set [2] (at 25° C.) were 102 torr and 159 torr, respectively.
As for `COc1ccc2c(c1)[C@]13CCCC[C@@H]1[C@H](C2)N(C)CC3` [dextromethorphan, Dextromethorphan hydrobromide, reference compound], the “potency to inhibit AMMC metabolism” value in data set [5] is on record as “similar”.
For the compound `CN1CC[C@@]23CCCC[C@@H]2[C@@H]1Cc1ccc(OCC(F)(F)F)cc13` [trifluoroethyldextrorphan, O-trifluoroethyldextrorphan], the “potency to inhibit AMMC metabolism” value in data set [5] (human recombinant CYP2D6 1.5 pmole, AMMC 1.5 μM, compounds 10^−10 M to 10^−5 M, 45 minutes, FIG. 5) is “similar”. The “trifluoroacetaldehyde captured from the headspace of the microsomal incubation mixture” value in data set [6] is reported as 120 ng.
